Data from ChEMBL document CHEMBL3745703, “Preclinical characterization of substituted 6,7-dihydro-[1,2,4]triazolo[4,3-a]pyrazin-8(5H)-one P2X7 receptor antagonists” (Bioorg Med Chem Lett, 2016).
Values after ≈ are worked out from the molar mass of the structure shown.

Experiments:
P2X purinoceptor 7 [1] = target: T1, P2X purinoceptor 7 (Homo sapiens, UniProt Q99572); experiment: Antagonist activity at human P2X7 receptor expressed in 1321N1 cells assessed as inhibition of Bz-ATP-induced Ca2+ flux after 30 mins by FLIPR assay; format: cell-based
T1 sequence (Q99572 whole entry): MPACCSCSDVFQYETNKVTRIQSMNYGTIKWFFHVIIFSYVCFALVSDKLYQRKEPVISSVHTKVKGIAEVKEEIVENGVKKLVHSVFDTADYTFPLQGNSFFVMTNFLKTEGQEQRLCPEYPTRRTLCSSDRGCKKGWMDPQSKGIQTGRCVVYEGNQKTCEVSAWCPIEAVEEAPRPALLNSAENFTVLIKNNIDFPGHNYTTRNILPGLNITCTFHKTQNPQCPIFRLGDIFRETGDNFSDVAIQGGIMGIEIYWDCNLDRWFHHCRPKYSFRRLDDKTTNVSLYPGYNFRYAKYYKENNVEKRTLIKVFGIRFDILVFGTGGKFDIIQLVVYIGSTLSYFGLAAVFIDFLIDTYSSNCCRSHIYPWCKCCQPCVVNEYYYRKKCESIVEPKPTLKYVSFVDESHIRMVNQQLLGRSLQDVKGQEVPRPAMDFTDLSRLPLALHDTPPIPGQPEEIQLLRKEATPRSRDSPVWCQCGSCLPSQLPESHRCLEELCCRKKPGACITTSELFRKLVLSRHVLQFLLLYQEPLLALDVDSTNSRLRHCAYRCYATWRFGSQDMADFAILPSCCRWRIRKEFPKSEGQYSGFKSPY

P2X purinoceptor 7 [2] = target: T2, P2X purinoceptor 7 (Rattus norvegicus, UniProt Q64663); experiment: Antagonist activity at rat P2X7 receptor expressed in 1321N1 cells assessed as inhibition of Bz-ATP-induced Ca2+ flux after 30 mins by FLIPR assay; format: cell-based
T2 sequence (Q64663 whole entry): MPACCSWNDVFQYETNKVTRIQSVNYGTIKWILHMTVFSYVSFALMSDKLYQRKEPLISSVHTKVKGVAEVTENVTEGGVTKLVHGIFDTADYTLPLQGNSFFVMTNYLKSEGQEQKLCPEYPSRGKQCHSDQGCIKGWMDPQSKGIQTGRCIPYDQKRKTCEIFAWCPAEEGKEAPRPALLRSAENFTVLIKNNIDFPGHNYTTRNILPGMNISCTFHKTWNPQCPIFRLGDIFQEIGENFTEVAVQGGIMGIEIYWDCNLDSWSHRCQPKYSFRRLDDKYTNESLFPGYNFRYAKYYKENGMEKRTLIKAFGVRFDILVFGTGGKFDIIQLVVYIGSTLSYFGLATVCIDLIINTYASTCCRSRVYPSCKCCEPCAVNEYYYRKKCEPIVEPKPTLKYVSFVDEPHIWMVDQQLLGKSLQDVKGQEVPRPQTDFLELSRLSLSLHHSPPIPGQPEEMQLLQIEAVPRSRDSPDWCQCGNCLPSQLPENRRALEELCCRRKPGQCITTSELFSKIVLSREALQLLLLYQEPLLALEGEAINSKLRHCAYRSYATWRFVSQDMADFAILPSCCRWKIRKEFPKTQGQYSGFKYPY

[3] = Half life in rat at 1 mg/kg, iv and 5 mg/kg, po; format: ADME, organism-based; details: in vivo
[4] = Extraction ratio in human liver microsomes at 1 uM; format: ADME; details: read-out: ERH
[5] = Efflux ratio of apparent permeability from basolateral to apical side over apical to basolateral side in human Caco2 cells; format: ADME, cell-based; details: Caco-2
[6] = Extraction ratio in rat liver microsomes at 1 uM; format: ADME; details: read-out: ERH
[7] = Plasma protein binding in rat at 1 uM; format: ADME, cell-free; details: read-out: PPB (converted)
[8] = Plasma concentration in Sprague-Dawley rat at 10 mg/kg, po at Tmax; format: ADME, organism-based
[9] = Aqueous equilibrium solubility of the compound at pH 2; format: physicochemical
[10] = Apparent permeability from basolateral to apical side in human Caco2 cells; format: ADME, cell-based; details: Caco-2
[11] = Oral bioavailability in rat at 5 mg/kg; format: ADME, organism-based; details: in vivo
[12] = Aqueous equilibrium solubility of the compound at pH 7; format: physicochemical
[13] = Apparent permeability from apical to basolateral side in human Caco2 cells; format: ADME, cell-based; details: Caco-2
Rattus norvegicus [14] = species on record: Rattus norvegicus; experiment: Ex vivo receptor occupancy at P2X7 receptor in Sprague-Dawley rat hippocampus assessed as inhibition of [3H] A-804598 binding at Tmax by autoradiography; format: functional
[15] = Volume of distribution at steady state in rat at 1 mg/kg, iv and 5 mg/kg, po; format: ADME, organism-based; details: in vivo, read-out: Vdss
[16] = Plasma protein binding in human at 1 uM; format: ADME, cell-free; details: read-out: PPB (converted)
Brain = experiment: Drug uptake in Sprague-Dawley rat brain at 10 mg/kg, po at Tmax; format: ADME, organism-based; details: in vivo
[17] = Selectivity ratio of IC50 for rat P2X7 receptor to IC50 for human P2X7 receptor
[18] = Clearance in rat at 1 mg/kg, iv and 5 mg/kg, po; format: ADME, organism-based; details: in vivo
Rattus norvegicus [19] = experiment: Ex vivo receptor occupancy at P2X7 receptor in po dosed Sprague-Dawley rat hippocampus assessed as inhibition of [3H]JNJ-54232334 binding after 30 mins; format: functional
Cytochrome P450 2C19 = Cytochrome P450 2C19 (Homo sapiens, UniProt P33261); experiment: Inhibition of CYP2C19 (unknown origin); format: ADME
[20] = Inhibition of CYP450 (unknown origin); format: ADME, Homo sapiens
[21] = Plasma protein binding in Sprague-Dawley rat at 10 mg/kg, po; format: ADME, organism-based; details: read-out: PPB (converted)
Rattus norvegicus [22] = species on record: Rattus norvegicus; experiment: animal or person; details: Sprague-Dawley, P2X7
Description: Ex vivo receptor occupancy at P2X7 receptor in po dosed Sprague-Dawley rat hippocampus assessed as inhibition of [3H]JNJ-54232334 binding by measuring brain level after 30 mins

[23] = Brain protein binding in Sprague-Dawley rat at 10 mg/kg, po; format: ADME, organism-based; details: read-out: PB (converted)
[24] = Unbound brain to plasma partition ratio in Sprague-Dawley rat at 0.8 mg/kg, po; details: read-out: K(p,uu,brain)
[25] = Ratio of drug level in brain to plasma in Sprague-Dawley rat at 10 mg/kg, po; format: ADME, organism-based; details: read-out: BPR
[26] = target: Voltage-gated inwardly rectifying potassium channel KCNH2 (Homo sapiens, UniProt Q12809); experiment: Displacement of dofetilide from human ERG channel
Rattus norvegicus [27] = species on record: Rattus norvegicus; experiment: animal or person; details: Sprague-Dawley, P2X7, Plasma
Description: Ex vivo receptor occupancy at P2X7 receptor in po dosed Sprague-Dawley rat hippocampus assessed as inhibition of [3H]JNJ-54232334 binding by measuring plasma level after 30 mins

Sequence of Voltage-gated inwardly rectifying potassium channel KCNH2 (Q12809 whole entry): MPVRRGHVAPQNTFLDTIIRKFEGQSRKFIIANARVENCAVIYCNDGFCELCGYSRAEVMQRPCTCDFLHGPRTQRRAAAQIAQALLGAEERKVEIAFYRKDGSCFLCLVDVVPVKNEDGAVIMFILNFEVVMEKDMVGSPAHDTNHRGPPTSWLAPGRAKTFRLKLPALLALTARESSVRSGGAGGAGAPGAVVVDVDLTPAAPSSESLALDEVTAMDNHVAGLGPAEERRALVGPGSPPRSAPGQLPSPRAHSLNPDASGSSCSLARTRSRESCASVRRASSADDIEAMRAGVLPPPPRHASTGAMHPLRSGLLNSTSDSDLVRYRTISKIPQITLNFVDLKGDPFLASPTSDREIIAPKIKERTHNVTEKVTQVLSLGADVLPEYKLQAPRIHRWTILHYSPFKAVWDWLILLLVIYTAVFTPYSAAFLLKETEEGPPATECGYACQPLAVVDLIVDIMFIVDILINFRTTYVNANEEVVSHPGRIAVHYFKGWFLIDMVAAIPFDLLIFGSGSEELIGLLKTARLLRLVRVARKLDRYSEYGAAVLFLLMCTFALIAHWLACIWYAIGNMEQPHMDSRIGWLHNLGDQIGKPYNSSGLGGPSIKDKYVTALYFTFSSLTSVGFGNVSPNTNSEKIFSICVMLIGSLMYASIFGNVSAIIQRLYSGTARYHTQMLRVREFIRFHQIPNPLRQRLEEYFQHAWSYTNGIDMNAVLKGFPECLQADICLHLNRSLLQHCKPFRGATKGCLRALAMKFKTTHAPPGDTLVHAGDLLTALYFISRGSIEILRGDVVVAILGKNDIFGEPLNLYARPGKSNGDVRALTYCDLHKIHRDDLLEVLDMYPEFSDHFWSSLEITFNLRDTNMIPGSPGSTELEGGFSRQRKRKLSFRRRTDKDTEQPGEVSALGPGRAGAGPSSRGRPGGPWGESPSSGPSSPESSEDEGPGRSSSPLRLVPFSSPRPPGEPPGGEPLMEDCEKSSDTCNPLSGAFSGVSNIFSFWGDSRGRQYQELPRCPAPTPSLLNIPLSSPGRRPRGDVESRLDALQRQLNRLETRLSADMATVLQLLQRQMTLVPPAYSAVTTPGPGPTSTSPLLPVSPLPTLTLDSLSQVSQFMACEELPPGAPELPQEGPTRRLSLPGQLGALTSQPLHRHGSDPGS
Sequence of Cytochrome P450 2C19 (P33261 whole entry): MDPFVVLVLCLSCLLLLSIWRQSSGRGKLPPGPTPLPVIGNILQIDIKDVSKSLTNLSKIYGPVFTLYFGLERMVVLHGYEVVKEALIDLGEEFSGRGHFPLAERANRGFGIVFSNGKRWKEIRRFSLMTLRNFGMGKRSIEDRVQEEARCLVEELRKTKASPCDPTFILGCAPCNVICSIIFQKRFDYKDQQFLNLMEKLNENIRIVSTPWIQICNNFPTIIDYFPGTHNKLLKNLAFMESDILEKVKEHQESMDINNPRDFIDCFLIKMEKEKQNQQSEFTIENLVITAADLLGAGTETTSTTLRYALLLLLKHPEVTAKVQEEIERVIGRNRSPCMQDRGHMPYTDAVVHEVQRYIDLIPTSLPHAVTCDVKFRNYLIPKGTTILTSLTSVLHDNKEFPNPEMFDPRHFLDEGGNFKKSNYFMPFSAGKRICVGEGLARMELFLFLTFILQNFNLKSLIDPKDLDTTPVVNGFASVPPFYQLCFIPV

| Compound | IC50 (P2X purinoceptor 7 [1]) [nM] | IC50 (P2X purinoceptor 7 [2]) [nM] | half-life [3] [h] | fraction unbound at 1 µM [7] | Cmax [8] [ng/mL] | solubility thermodynamic [9] [µM] | Papp B→A [10] [×10⁻⁶ cm/s] | bioavailability [11] [%] | solubility thermodynamic [12] [µM] | Papp A→B [13] [×10⁻⁶ cm/s] | Occ (Rattus norvegicus [14]) [%] | Vd [15] [L/kg] | fraction unbound at 1 µM [16] | Drug uptake (Brain) [ng/mL] | clearance [18] [mL/min/kg] | further results |
| --- | --- | --- | --- | --- | --- | --- | --- | --- | --- | --- | --- | --- | --- | --- | --- | --- |
| C[C@H]1Cn2c(nnc2-c2ccc(F)cn2)C(=O)N1Cc1cccc(C(F)(F)F)c1Cl | 0.7 | – | – | – | – | – | – | – | – | – | – | – | – | – | – | – |
| O=C1c2nnc(-c3cnccn3)n2CCN1Cc1cccc(C(F)(F)F)c1Cl | 440 | 8670 | – | – | – | – | – | – | – | – | – | – | – | – | – | – |
| C[C@H]1Cn2c(nnc2-c2cccnc2)C(=O)N1Cc1cccc(C(F)(F)F)c1Cl | 1.9 | 88 | 2.8 | 0.17 | 1060 | > 400 | 73 | 82 | 375 (≈ 158 µg/mL) | 6.2 | 0 | 5 | 0.22 | 43 | 21 | hepatic extraction ratio at 1 µM [4]: 0.3; efflux ratio [5]: > 10; hepatic extraction ratio at 1 µM [6]: 0.3; Ratio IC50 [17]: 100 |
| C[C@H]1Cn2c(nnc2-c2cnccn2)C(=O)N1Cc1cccc(C(F)(F)F)c1Cl | – | – | 1 | 0.1 | 945 | 89 (≈ 37.6 µg/mL) | 50 | 125 | 56 (≈ 23.7 µg/mL) | 47 | 78 | 1.5 | 0.13 | 672 | 19 | ED50 (Rattus norvegicus [19]): 0.8 mg/kg; Occ (Rattus norvegicus [19]): Dose-dependent effect; IC50 (Cytochrome P450 2C19): 7200 nM; IC50 [20]: > 10000 nM; fraction unbound [21]: 0.096; EC50 (Rattus norvegicus [22]): 0.066 µg/mL (≈ 0.156 µM); fraction unbound [23]: 0.046; Kp uu [24]: 0.51; Kp [25]: 0.7; IC50 [26]: > 10000 nM; EC50 (Rattus norvegicus [27]): 0.062 µg/mL (≈ 0.147 µM) |
| O=C1c2nnn(-c3cnccn3)c2CCN1Cc1cccc(C(F)(F)F)c1Cl | > 10000 | > 10000 | – | – | – | – | – | – | – | – | – | – | – | – | – | – |
| C[C@H]1Cn2c(nnc2-c2cnccn2)C(=O)N1Cc1c(Cl)cccc1Cl | – | 2380 | – | – | – | – | – | – | – | – | – | – | – | – | – | – |
| C[C@H]1Cn2c(nnc2-c2ccccn2)C(=O)N1Cc1cccc(C(F)(F)F)c1Cl | 0.5 | 350 | – | – | – | – | – | – | – | – | – | – | – | – | – | Ratio IC50 [17]: 100 |
| C[C@H]1Cn2c(nnc2-c2cnccn2)C(=O)N1Cc1ccccc1Cl | – | > 10000 | – | – | – | – | – | – | – | – | – | – | – | – | – | – |
| C[C@H]1Cn2c(nnc2-c2cc[nH]n2)C(=O)N1Cc1cccc(C(F)(F)F)c1Cl | – | – | 3.9 | 0.1 | 1310 | 41 (≈ 16.8 µg/mL) | 65 | 81 | 95 (≈ 39 µg/mL) | 5.4 | 3 | 4.2 | 0.08 | 41 | 13 | – |
| C[C@H]1Cn2c(nnc2-c2ccn(C)n2)C(=O)N1Cc1cccc(C(F)(F)F)c1Cl | 4.2 | 960 | – | – | – | – | – | – | – | – | – | – | – | – | – | Ratio IC50 [17]: 100 |
| C[C@H]1Cn2c(nnc2-c2cnccn2)C(=O)N1Cc1cccc(C(F)(F)F)c1 | 3.6 | 4140 | – | – | – | – | – | – | – | – | – | – | – | – | – | – |
| C[C@H]1Cn2c(nnc2-c2ncccn2)C(=O)N1Cc1cccc(C(F)(F)F)c1Cl | – | – | 4.8 | 0.17 | 2790 | 176 (≈ 74.4 µg/mL) | 64 | 80 | 201 (≈ 85 µg/mL) | 4.4 | 41 | 3.3 | 0.21 | 116 | 11 | – |
